The subject of test [1] is Human ES cells (KhES-1) aggregates. Put plainly: Cortical hem formation in human ES cell aggregates with Wnt signal enhancer, immunohistostaining on day 42. The format is cell-based. The following applies: 3 μM CHIR99021 alone, day 18 to day 42. The method, then: Human ES cells (KhES-1; a fluorescence protein gene Venus is knocked-in a telencephalon specific gene Foxg1) were dispersed to single cells by a trypsin treatment, and according to the SFEBq method (Nakano et al, Cell Stem Cell, 2012), aggregates were formed and subjected to suspension aggregate culture at 37° C. in the presence of 5% CO2 for differentiation induction. The dispersed 9000 human ES cells were seeded in each well of a V bottom 96 well plate applied with a low cell adsorptive surface coating, and a growth factor-free G-MEM medium (Gibco/Invitrogen) added with 20% KSR (Knockout Serum Replacement), 0.1 mM non-essential amino acid solution (Gibco/Invitrogen), 1 mM sodium pyruvate solution (Sigma), and 0.1 mM 2-mercaptoethanol was used as the medium for differentiation induction. […] The aggregate was analyzed on day 1 and day 34 from the start of differentiation induction, and analyzed by immunohistostaining on day 42. […] The culture medium used for the culture from day 18 to day 42 was DMEM/F12 medium (Gibco/Invitrogen) added with 1% N2 supplement (Gibco/Invitrogen), 1% lipid concentrate (Chemically defined lipid concentrate, Gibco/Invitrogen), 10% FBS, 5 μg/ml heparin, 3 μM GSK-3β inhibitor CHIR99021 (Wnt signal enhancer) and the aggregates were analyzed by immunohistostaining on day 42.

In test [2] the test system is hESC-derived cortical neuroepithelium. The experiment in a line: Notch signal inhibition in hESC-derived cortical neuroepithelium, neural stem cell/progenitor and neuron markers. Format: cell-based, human. The following applies: 10 μM DAPT, days 70-77. An excerpt: (A-C) Immunostaining of Pax6 and Sox2 in apical and basal (SVZ) neural stem cells/progenitors within the hESC-derived cortical neuroepithelium on day 91. The majority of Sox2 positive cells express Pax6 (C). (D-F) Effects of Notch signal inhibition on the expression of neural stem cells/progenitor and neuron markers in cortical neuroepithelium. […] An increase of cortical neuroepithelium thickness also observed after the treatment (F). ***P<0.001, Student t tests between with DAPT (n=6) and without DAPT (n=5) treatment. (G) Schematic of oRG neural stem cells/progenitors in the human fetal outer SVZ. (H and H′) Phospho-vimentin+ neural stem cells/progenitors in the SVZ expressed Sox2. (I) Phospho-vimentin+ neural stem cells/progenitors in the SVZ with a long […] process extending toward the pial surface. (J) Phospho-vimentin+ SVZ neural stem cells/progenitors with a basal process carried a pericentin+ centrosome in the neurons. During mitosis, two pericentin+ centrioles were found for dividing cells. […] (Scale bars, 100 μm in A-E; 25 μm in H-K.)
Cortical neuroepithelium induced from hESCs were subjected to culture under the following conditions. On day 18, the cell aggregates were transferred to a 9-cm Petri dish (non-cell adhesive surface coat) and further cultured in DMEM/F12 medium (Gibco/Invitrogen) supplemented with 1% N2 supplement (Gibco/Invitrogen), 1% lipid concentrate (Chemically Defined Lipid Concentrate, Gibco/Invitrogen), 0.25 mg/mL Fungizone, 100 U/mL penicillin, and 100 μg/mL streptomycin at 37° C. in the presence of 5% CO2 and 40% O2. From day 35, 10% FBS, 5 μg/mL heparin, and 1% Matrigel growth factor-reduced (BD Biosciences) were also added to the medium. To prevent cell death in the central portions of cell aggregates, the aggregates were cut into half-size with fine forceps under a dissecting microscope every 2 wk after day 35 and were cultured using a lumox culture dish (SARSTEDT; O2 penetrating) after day 56. From day 70, the concentration of Matrigel was increased (final 2%) and B27 supplement (Gibco/Invitrogen) was added to the medium.

Test [3] deals with Human ES cells (KhES-1) aggregates. The experiment in a line: Induction of basal ganglia progenitor tissue (LGE/MGE) in human ES cell aggregates by Shh signal agonist, immunohistostaining on day 35. Format: cell-based. The method, then:
Human ES cells (KhES-1; a fluorescence protein gene Venus is knocked-in a telencephalon specific gene Foxg1) were dispersed to single cells by a trypsin treatment, and according to the SFEBq method (Nakano et al, Cell Stem Cell, 2012), aggregates were formed and subjected to suspension aggregate culture at 37° C. in the presence of 5% CO2 for differentiation induction. The dispersed 9000 human ES cells were seeded in each well of a V bottom 96 well plate applied with a low cell adsorptive surface coating, and a growth factor-free G-MEM medium (Gibco/Invitrogen) added with 20% KSR (Knockout Serum Replacement), 0.1 mM non-essential amino acid solution (Gibco/Invitrogen), 1 mM sodium pyruvate solution (Sigma), and 0.1 mM 2-mercaptoethanol was used as the medium for differentiation induction. To suppress dispersion-induced cell death, 20 μM of a ROCK inhibitor Y-27632 was added for the first 3 days of differentiation induction, and the concentration thereof was reduced to half for the next 3 days. From day 0 to day 18 after the start of the differentiation induction, Wnt signal inhibitor IWR-1-end (3 μM) and TGFβ signal inhibitor SB431542 (5 μM) were added and allowed to react. On day 18 from the start of differentiation induction, these aggregates were transferred to a 9 cm petri dish applied with low cell-adhesive surface coating, and suspension culture was performed at 37° C., in the presence of 5% CO2, 40% O2. From day 18 to day 35, DMEM/F12 medium (Gibco/Invitrogen) added with 1% N2 supplement (Gibco/Invitrogen), and 1% lipid concentrate (Chemically defined lipid concentrate, Gibco/Invitrogen) was used. From day 35, the medium further added with 10% FBS, 5 μg/ml heparin, and 1% Matrigel growth factor reduced (BD Bioscience) was used. The aggregate was analyzed on day 1 and day 34 from the start of differentiation induction, and analyzed by immunohistostaining on day 42.
Up to day 35 of differentiation induction, cells were cultured under culture conditions similar to those of Example 1. That is, human ES cell aggregates were cultured in a V bottom 96 well plate up to 18 days after differentiation induction, suspended aggregates were transferred to a non-cell adhesive petri dish (diameter […]), and suspension culture was performed at 37° C. in the presence of 5% CO2, 40% O2 from day 18 to day 35 of differentiation induction. However, Sonic hedgehog (Shh) signal agonist SAG was added to the culture medium of Example 1 at a final concentration of 30 nM or 500 nM only in the period of from day 15 to day 21 and allowed to react. The aggregate was analyzed by immunohistostaining on day 35.
Up to day 35 of differentiation induction, cells were cultured under culture conditions similar to those of Example 2. That is, human ES cell aggregates were cultured in a V bottom 96 well plate up to 18 days after differentiation induction, suspended aggregates were transferred to a non-cell adhesive petri dish (diameter 9 cm), and suspension culture was performed at 37° C. in the presence of 5% CO2, 40% O2, from day 18 to day 35 of differentiation induction. However, Shh signal agonist SAG was added to the culture medium at a concentration of 30 nM only in the period of from day 15 to day 21 of differentiation induction. The aggregate was analyzed by immunohistostaining on day 35.
Ventralization of cortical neuroepithelium was performed by adding hedgehog agonist SAG (30 nM or 500 nM) during culture days 15-21. The cell aggregates were fixed on culture day 35.

In test [4] the test system is hESC-derived cortical neuroepithelium. The experiment in a line: Rolling morphogenesis of hESC-derived cortical neuroepithelium with ROCK inhibitor. The format is cell-based, human. As to conditions: P<0.001 vs control, Fisher's exact test, dihydrochloride. An excerpt:
(A-I) Asymmetric progression of rounding morphogenesis of hESC-derived cortical neuroepithelium. Arrows indicate boundary of a cortical neuroepithelium domain in A and rolling epithelium in B-D. Arrowheads indicate rolling epithelium in E. Arrows indicate rounding movements of the neuroepithelium in F-I. (J-L) Effect of the ROCK inhibitor Y-27632 on the rolling of cortical neuroepithelium. […] Treatment group, n=187 neuroepithelium domains; control group, n=130. (M and N) The rolling shape was preferentially observed on the side with strong expression of Otx2 and Coup-TF1 (dorsal and caudal markers). (O-Q) Adjacent formation of neuroepithelium structures of cortex (Pax6+) and LGE (Gsh2+; with GAD65^+ GABAergic neurons underneath) on day 35. The cortical side contacting the LGE domain was opposite to the side with strong rolling (arrow). (R) Interkinetic nuclear migration in the hESC-derived cortical neuroepithelium on day 24 (two-photon imaging). Visualized with partial mixing of pax6::venus reporter hESCs with nonlabeled hESCs. Two daughter cells with both apical and basal processes were generated from an apically dividing progenitor. (Scale bars, 200 μm in A; 100 μm in B-H and J-N; 200 μm in O-Q.) Nuclear counter staining (blue), DAPI.

Where [5] appears, read: 30 nM SAG, day 15 to day 21, analysed day 35.

Consider `Cc1cnc(-c2cnc(NCCNc3ccc(C#N)cn3)nc2-c2ccc(Cl)cc2Cl)[nH]1` [CHIR99021, 6-[[2-[[4-(2,4-Dichlorophenyl)-5-(5-methyl-1H-imidazol-2-yl)-2-pyrimidinyl]amino]ethyl]amino]-3-pyridinecarbonitrile], for which, in test [1], the “aggregates with selective formation of cortical hem” value was “not less than 80%”.

Turning to `C[C@H](NC(=O)Cc1cc(F)cc(F)c1)C(=O)N[C@H](C(=O)OC(C)(C)C)c1ccccc1` [DAPT], in test [2], the “Satb2+ neurons” value is reported as “increased”, the “Sox2+ Tbr2− cells after the treatment” value is listed as “rarely remained” and the “Sox2− Tbr2+ intermediate neural stem cells/progenitors” value is “increased”. Also, the cortical neuroepithelium thickness result in test [2] (P<0.001) was “increase”.

Regarding `CNC1CCC(N(Cc2cccc(-c3ccncc3)c2)C(=O)c2sc3ccccc3c2Cl)CC1` (stereo not shown) [SAG], in test [3] (30 nM SAG for days 15-21), the “Gsh2 (LGE marker) expression in foxg1::Venus-expressing neural epithelium” value is given as “a substantial portion of foxg1::Venus-expressing neural epithelium expressed Gsh2”. In addition, in test [3] (setting [5]), the “aggregates with Gsh2 positive LGE neuroepithelium” value is given as “not less than 70%”; the “aggregates with continuous self-formation of cerebral cortex and basal ganglion in one aggregate” value is “not less than 50%”. In test [3] (30 nM SAG, days 15-21), the “percentage of Gsh2+ neuroepithelium in Foxg1+ telencephalic neuroepithelium” value was “increased” and the “percentage of Pax6+ neuroepithelium in Foxg1+ telencephalic neuroepithelium” value is “partially suppressed”. For the same molecule, the “aggregates with Foxg1::venus positive and Nkx2.1 positive MGE neuroepithelium” value in test [3] (500 nM SAG, day 15 to day 21, analysed day 35) was “not less than 80%”. In addition, in test [3] (500 nM SAG, days 15-21), the “Nkx2.1+ neuroepithelium as share of Foxg1+ telencephalic NE” value was 40-50%; the “expression of both Pax6 and Gsh2” value is reported as “efficiently suppressed”. In addition, the “MGE marker Nkx2.1 expression” value in test [3] (high concentrations of SAG (500 nM), days 15-21) was “induced the MGE marker Nkx2.1 at the cost of Pax6 and Gsh2 expression”.

As for `C[C@@H](N)[C@H]1CC[C@H](C(=O)Nc2ccncc2)CC1.Cl.Cl` [Y-27632, (+)-(R)-trans-4-(1-aminoethyl)-N-(4-pyridyl)cyclohexanecarboxamide dihydrochloride], the “rolling morphogenesis of cortical neuroepithelium” value in test [4] is “Attenuation of rolling morphogenesis”; in test [4] (listed as ROCK inhibitor), “attenuated”.

The values are drawn from patent publication US11198850B2, “Method for manufacturing telencephalon or progenitor tissue thereof” (RIKEN, priority 2013, dated 2021).
